Test results: patent US8097585B2, “Methods of treating inflammation by administration of heme oxygenase-1 and products of heme degradation” (priority 2002, dated 2012)
Where a name gives a salt, the structure may show the parent alone.

Tests used:
HO-1 = HO-1 expression in colonic tissue during DSS-colitis (Western blot, semi-quantitative PCR); assay type: in vivo, C57BL/6 mice; details: CoPP 5 mg/kg i.p. daily, entire 7 day period
Method: Western Blot Analysis. Tissue samples from the distal colon of the animals were removed and snap frozen with liquid nitrogen. The frozen tissue was ground thoroughly and homogenized in Ripa buffer supplemented with proteinase inhibitors. The protein concentration was determined by the Bio-Rad Dc Protein Assay™ according manufacturers instructions (Bio-Rad, Hercules, Calif.). Electrophoresis was performed under denaturing conditions according to Laemmli with 10% polyacrylamide gels by loading 35 μg protein. Proteins were transferred onto a polyvinyldifluoridine membrane (Immobilon P™; Millipore, Bedford, Mass.) by electroblotting. Proteins were then detected with rabbit polyclonal antibodies directed against human HO-1 (StressGen, Victoria, Canada) or β-tubulin (Boehringer Mannheim, Mannheim, Germany). Proteins were visualized using HRP-conjugated donkey anti-rabbit IgG or goat anti-mouse IgG (Pierce) and the ECL assay (Amersham Life Science, Arlington Heights, Ill.), according to manufacturer's instructions.
Semi-Quantitative PCR. RNA was extracted using RNeasy Mini Kits (Qiagen Inc., CA, USA) and reverse transcribed into cDNA with the RNA PCR Kit (TaKaRa, PanVera, Madison, Wis., USA). […] PCR products (10-20 μl) were analyzed in an ethidium bromide-stained 1% agarose gel.

[1] = Total antioxidant capacity of graft, SITx with 6 hours preservation; assay type: in vivo, LEW rats
Description: Antioxidant capacity after BV treatment. the total antioxidant capacity or antioxidant power within the graft specimens was quantitatively measured. Antioxidant levels in the graft were detected using Total Antioxidant Power® (Oxford Biomedical Research, Oxford, Mich.), according to the manufacturer's instructions. In this procedure, the evaluation of the antioxidant level in a sample is detected by evaluation of Cu^+ derived from Cu^++ by the combined action of all antioxidants present in the sample.

IL-10 = test: Endotoxic shock (LPS) model, serum IL-10; assay type: in vivo, Sprague-Dawley rats; details: biliverdin i.p. […] 17 h and 1 h prior to and 8 h after LPS
Method: Treatment Protocol. Endotoxin (lipopolysaccharide/LPS; Sigma; E. coli serotype 0128:B7; 3 mg/kg, i.v.) was administered to male Sprague-Dawley, resulting in an acute non-lethal inflammation. In rats, a sublethal dose of LPS results in a moderate lung inflammation characterized by neutrophil accumulation and protein accumulation in the airspace, both markers of lung inflammation. The pro-inflammatory cytokine TNF-alpha increases very rapidly in the serum, peaking by 60-90 minutes. This is followed by increases in IL-10, a prototypical anti-inflammatory cytokine that peaks 8-12 hr later.
Administration of Biliverdin. Biliverdin (Frontier Scientific: prepared in PBS following solubilization in NaOH) was administered i.p. at […] 17 hours prior to, one hour prior to, and eight hours after LPS administration.
Bronchoalveolar Lavage. A bronchoalveolar lavage (BAL) was performed 24 hours after LPS administration. Serum cytokines were measured using commercially available ELISA kits (R&D Systems Inc.) per the manufacturer's instructions. Total protein was determined via a standard Bradford assay based on a standard curve. […] Total cell count was determined as well as differential analysis of cell type and morphology via Diff-Quik® Fixative (American Scientific Products) staining of a sample of the lavagate.

[2] = system: MPO positive cells in intestinal muscularis; test: Leukocyte recruitment into intestinal muscularis (MPO histochemistry); assay type: in vivo, LEW rats
Method: Small Intestinal Transplantation. Orthotopic small intestinal transplantation (SITx) was performed in syngeneic Lewis rats. SITx with caval drainage was performed using a previously described procedure (Murase et al., in Handbook of Animal Models in Transplantation Research, Cramer et al., Eds. CRC Press, Boca Raton, Fla., pp. 203-213 (1994)). […] The graft was perfused via the aortic segment with 5 ml chilled Ringer's lactate solution, and the intestinal lumen was irrigated with 20 ml of cold saline solution containing 0.5% neomycin-sulfate (Sigma, St. Louis, Mo.). End-to-side anastomoses between the graft aorta and the recipient infrarenal aorta, and between the graft portal vein and recipient vena cava, were performed with 10-0 Novafil™ suture. The cold ischemic time was 1 hour. The entire recipient intestine was removed and the enteric continuity was restored by proximal and distal end-to-end intestinal anastomoses. Recipient animals were given 20 mg/day prophylactic cefamandole nafate for 3 postoperative days. Transplanted recipients were given water 3 hours after surgery, and were fed 24 hours after surgery.
Leukocyte Recruitment. […] Myeloperoxidase (MPO) activity, as determined by Hanker-Yates histochemistry, was used to quantify the polymorphonuclear neutrophil (PMN) infiltrate in tissues from control and transplanted animals, with and without BV treatment. […]

[3] = system: IL-2 receptor α-chain (IL-2Rα, CD25); test: Flow cytometric analysis of IL-2R (CD25) expression; assay type: cell-based, mouse; details: biliverdin 100 μM, anti-CD3 mAb stimulated, 6 and 24 hours
Method: Flow cytometric analysis (IL-2R expression). B6AF1 leukocytes (5×10^5 cells/well) were stimulated with anti-CD3 mAb (1 μg/ml) and cultured in 96 well round bottom plates with or without biliverdin (100 μM). Six and 24 hours after stimulation, cells were harvested, washed, and stained with fluorochrome conjugated isotype control Abs, or specific anti-CD4 and/or anti-CD25 mAbs (all antibodies obtained from BD Pharmingen). Non-stimulated naïve leukocytes were used as a negative control. Following Abs staining, cell samples were analyzed using a FACSort™ flow cytometer and CellQuest™ software (BD Biosciences, Palo Alto, Calif.). Ten thousand CD4+ T cells were acquired for each sample and their CD25 expression was examined. The experiment was repeated 3 times.

| SMILES | HO-1 protein in the intestine (HO-1) | antioxidant capacity of the transplanted intestine [1] | IL-10 level (IL-10) | mean number of MPO positive cells ([2]; 24 hours after SITx) | MPO positive cells ([2]; BV injection into normal animals) | expression of IL-2Rα (CD25) on splenic CD4+ T cells [3] |
| --- | --- | --- | --- | --- | --- | --- |
| C=CC1=C(C)c2cc3[n-]c(cc4nc(cc5[n-]c(cc1n2)c(C)c5CCC(=O)[O-])C(CCC(=O)[O-])=C4C)c(C)c3C=C.[Co+2].[H+].[H+] [CoPP, Cobalt protoporphyrin] | consistently high levels of HO-1 protein |  |  |  |  |  |
| C=CC1=C(C)/C(=C/C2=NC(=C\c3[nH]c(/C=C4\NC(=O)C(C)=C4C=C)c(C)c3CCC(=O)O)/C(CCC(=O)O)=C2C)NC1=O [biliverdin, biliverdin dihydrochloride] |  | increased the antioxidant capacity of the transplanted intestine to normal levels | augmentation | significantly decreased | 3.9±1.3 cells per ×200 field | did not affect |
